Reference: publication PMC7878891 (Scientific Reports, 2021)

Assays:
[1] = biological target: PL^proCoV2 (recombinant SARS-CoV-2 PL^pro) (Severe acute respiratory syndrome coronavirus 2, UniProt P0DTD1); type: biochemical; settings: for IC50: read-out: IC50 toward PL^proCoV2
PL^proCoV2 = PL^proCoV2 (Severe acute respiratory syndrome coronavirus 2, UniProt P0DTD1); type: biochemical, SARS-CoV-2
CoV2 = settings: read-out: EC50 antiviral activity in cell-based assay; cited from earlier work
[2] = biological target: PL^proSARS (recombinant SARS-CoV-1 PL^pro) (Severe acute respiratory syndrome coronavirus, UniProt P0C6X7); assay: biochemical; type: biochemical
PL^proSARS = PL^proSARS (Severe acute respiratory syndrome coronavirus, UniProt P0C6X7); type: biochemical, SARS-CoV-1

For O=c1c2ccccc2[se]n1-c1ccccc1O [1d, 2-(2-Hydroxyphenyl)-1,2-benzisoselenazol-3(2H)-one], the “Inhibition of PL^proCoV2 at 2 μM” value [1] was “fully” and the IC50 [1] was 236 nM.

For COc1ccccc1-n1[se]c2ccccc2c1=O [1e, 2-(2-Methoxyphenyl)-1,2-benzisoselenazol-3(2H)-one], the “Inhibition of PL^proCoV2 at 2 μM” value [1] was “fully” and the IC50 [1] was 256 ± 35 nM.

Work on O=C(Nc1ccccc1O)c1ccccc1[Se][Se]c1ccccc1C(=O)Nc1ccccc1O [2d, Bis[2-(2-hydroxyphenylcarbamoyl)phenyl] diselenide] yielded an IC50 [1] of 339 ± 109 nM.

With COc1ccccc1NC(=O)c1ccccc1[Se][Se]c1ccccc1C(=O)Nc1ccccc1OC [2e, Bis[2-(2-methoxyphenylcarbamoyl)phenyl] diselenide] the IC50 [1] was 263 ± 121 nM.

For O=c1c2ccccc2[se]n1-c1ccccc1 [ebselen, 2-Phenyl-1,2-benzisoselenazol-3(2H)-one], the “Reactivation of PL^proCoV2 after dialysis” value (PL^proCoV2) is listed as “reactivation was not observed”, the “Mechanism of inhibition of PL^proCoV2” value [1] is listed as “irreversible” and the EC50 (CoV2) is listed as 4670 nM. The “Mechanism of inhibition of PL^proSARS” value [2] was “irreversible”, the IC50 ([2]; IC50 PL^proSARS 60 min incubation) was 8450 ± 960 nM and the IC50 ([2]; IC50 PL^proSARS no incubation) was > 200000 nM. The “Reactivation of PL^proSARS after dialysis” value (PL^proSARS) was “reactivation was not observed”.
